Test: Stability of dexamethasone in phosphate buffer for long term release
Assay type: physicochemical

stability in phosphate buffer for long term release: instability
SMILES: C[C@@H]1C[C@H]2[C@@H]3CCC4=CC(=O)C=C[C@]4(C)[C@@]3(F)[C@@H](O)C[C@]2(C)[C@@]1(O)C(=O)CO [dexamethasone]

— patent US11504340B2, “Ocular compositions” (THE QUEEN'S UNIVERSITY OF BELFAST, priority 2017, dated 2022)
